Data on four compounds can be found in US7365069B2, “Pyrimidone derivatives” (Bexel Pharmaceuticals Inc., priority 2002, dated 2008).

One series has as its system NCI-H460. Nature of the series: DTP human tumor cell line one-dose prescreen, NCI-H460. Conditions: 48 hours, Alamar Blue, test/control, read-out: Percentage growth Lung NCI-H460. It is filed as cell-based. For orientation: The colour change of resazurin is a common sign of viable cells or microbes.
Another series concerns SF-268. Nature of the series: DTP human tumor cell line one-dose prescreen, SF-268. The format is cell-based. Conditions: 48 hours, Alamar Blue, test/control, read-out: Percentage growth CNS SF-268.
Another series has as its system MCF-7. Briefly: DTP human tumor cell line one-dose prescreen, MCF-7. The format is cell-based. Conditions: MCF7, 48 hours, Alamar Blue, test/control, read-out: Percentage growth Breast MCF-7.
Another series relates to IL-6. Briefly: IL-6 production in LPS-stimulated human whole blood. It is filed as cell-based. Conditions: 1 μM, LPS 4 h. In short, it runs like this: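 Test compounds pre-incubated 15 min at 37 °C in human whole blood, then stimulated with LPS (Salmonella abortus equi, 1 μg/ml) for 4 h at 37 °C, 5% CO2. IL-6 levels measured by ELISA.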
A further series has as its system TNF-α. Nature of the series: TNF-α production in LPS-stimulated human whole blood. It is filed as cell-based. Conditions: 1 μM, LPS 4 h. The procedure, abridged: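 Human whole blood pre-incubated with compound 15 min at 37° C., then stimulated with LPS (Salmonella abortus equi, 1 μg/ml) for 4 h at 37° C. in 5% CO2. TNF-α quantified by ELISA.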

For orientation: melting point means the temperature of the solid-liquid transition. `CS(=O)(=O)c1ccc(-n2c(-c3ccc(F)cc3)nc(N3CCOCC3)c(C(N)=O)c2=O)cc1` [Example 50, 5-carboxamido-2-(4-fluorophenyl)-1-[4-(methylsulfonyl)phenyl]-4-morpholin-4-yl-6-oxo-1,6-dihydropyrimidine] gave a melting point of 255 to 258 °C. Further, the activity at 50 µM in the series with NCI-H460 is 94%. For the same compound, the activity at 50 µM with SF-268 turned out to be 97%. In addition, the activity at 50 µM with MCF-7 was 92%.

One may read the inhibition as the relative decrease from the control value, in per cent. Lower therefore signals a response near the control. Regarding `CSc1ccc(-c2nc(SC)c(C#N)c(=O)n2-c2ccc(C(C)(C)C)cc2)cc1` [Example 22, 1-(4-tert-butylphenyl)-5-cyano-4-(methylthio)-2-[4-(methylthio)phenyl]-6-oxo-1,6-dihydropyrimidine], the melting point is 233 to 236 °C. The inhibition at 1 µM in the series on IL-6 is 66.3%. For the same compound, in the series with NCI-H460, the activity at 50 µM turned out to be 80%. The same compound gave an inhibition at 1 µM with TNF-α of 62.7%. In the series with MCF-7, the activity at 50 µM worked out at 83%.

`CNc1nc(-c2ccc(F)cc2)n(-c2ccc(SC)cc2)c(=O)c1C#N` [Example 56, 5-cyano-2-(4-fluorophenyl)-4-(methylamino)-1-[4-(methylthio)phenyl]-6-oxo-1,6-dihydropyrimidine] showed a melting point of 219 to 222 °C. Further, in the series on NCI-H460, the activity at 50 µM came out at 54%. The activity at 50 µM in the series on SF-268 was 87%. Moreover, the activity at 50 µM with MCF-7 turned out to be 63%.

Regarding `CNc1nc(-c2ccc(F)cc2)n(-c2ccc(S(C)(=O)=O)cc2)c(=O)c1C(N)=O` [Example 49, 5-carboxamido-2-(4-fluorophenyl)-4-(methylamino)-1-[4-(methylsulfonyl)phenyl]-6-oxo-1,6-dihydropyrimidine], the melting point is more than 300 °C. The activity at 50 µM with NCI-H460 was found to be 72%. In addition, in the series on SF-268, the activity at 50 µM came out at 88%. In addition, in the series with MCF-7, the activity at 50 µM is 79%.
